Data taken from ChEMBL document CHEMBL1157884, “Synthesis and SAR of heterocyclic carboxylic acid isosteres based on 2-biarylethylimidazole as bombesin receptor subtype-3 (BRS-3) agonists for the treatment of obesity” (Bioorg Med Chem Lett, 2010).
pEC50, pIC50: −log10 of the molar value.

Tests used:
[1] = molecular target: T1, Bombesin receptor subtype-3 (Homo sapiens, UniProt P32247); test: Agonist activity at human BRS3; type: functional
T1 sequence (P32247 whole entry): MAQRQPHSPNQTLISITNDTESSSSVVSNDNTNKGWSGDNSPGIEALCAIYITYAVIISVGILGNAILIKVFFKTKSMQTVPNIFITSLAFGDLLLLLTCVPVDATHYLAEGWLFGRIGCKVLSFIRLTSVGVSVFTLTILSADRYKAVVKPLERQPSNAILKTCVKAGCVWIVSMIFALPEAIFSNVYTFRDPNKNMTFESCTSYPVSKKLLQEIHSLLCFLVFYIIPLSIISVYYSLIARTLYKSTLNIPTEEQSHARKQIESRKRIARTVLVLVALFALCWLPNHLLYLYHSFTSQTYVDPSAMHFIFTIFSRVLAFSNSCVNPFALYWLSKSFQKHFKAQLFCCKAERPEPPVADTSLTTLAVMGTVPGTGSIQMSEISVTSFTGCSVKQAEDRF

[2] = molecular target: T1, Bombesin receptor subtype-3; test: Binding affinity to human BRS3
[3] = molecular target: T2, Bombesin receptor subtype-3 (Homo sapiens) (UniProt P32247); test: Agonist activity at human BRS3 relative to [D-Tyr6,b-Ala11,Phe13,Nle14]-Bombesin; type: functional
T2 sequence (whole entry): T1 sequence (P32247 whole entry)

[4] = molecular target: T3, Bombesin receptor subtype-3 (Mus musculus) (UniProt O54798); test: Agonist activity at mouse BRS3 relative to [D-Tyr6,b-Ala11,Phe13,Nle14]-Bombesin; type: functional
T3 sequence (whole entry): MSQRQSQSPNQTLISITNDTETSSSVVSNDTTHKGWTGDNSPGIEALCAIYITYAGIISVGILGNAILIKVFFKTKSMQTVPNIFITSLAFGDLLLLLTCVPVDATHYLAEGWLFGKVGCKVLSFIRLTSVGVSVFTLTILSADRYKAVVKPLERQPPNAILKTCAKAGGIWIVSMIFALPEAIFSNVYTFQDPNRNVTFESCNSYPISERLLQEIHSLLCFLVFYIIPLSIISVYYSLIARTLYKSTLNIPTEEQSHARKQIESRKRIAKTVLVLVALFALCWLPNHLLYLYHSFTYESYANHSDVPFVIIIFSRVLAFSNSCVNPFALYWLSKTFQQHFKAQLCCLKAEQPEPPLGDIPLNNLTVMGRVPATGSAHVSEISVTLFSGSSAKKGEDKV

[5] = Total plasma concentration in rat at 1 mg/kg, iv after 1 hr; type: ADME, organism-based; set-up: dose 1 mg/kg, route intravenous
[6] = Drug level in rat brain at 1 mg/kg, iv after 1 hr; type: ADME, organism-based; set-up: dose 1 mg/kg, route intravenous; details: read-out: Drug uptake
[7] = Ratio of drug level in brain to plasma in rat at 1 mg/kg, iv after 1 hr; type: ADME, organism-based; set-up: dose 1 mg/kg, route intravenous
[8] = molecular target: T4, Bombesin receptor subtype-3 (Mus musculus, UniProt O54798); test: Agonist activity at mouse BRS3; type: functional
T4 sequence (O54798 whole entry): T3 sequence (whole entry)

[9] = Oral bioavailability in rat; type: ADME, organism-based; details: in vivo
[10] = Ratio of drug level in brain to plasma in rat at 2 mg/kg, iv after 1 hr; type: ADME, organism-based; set-up: dose 2 mg/kg, route intravenous
[11] = Drug level in rat brain at 2 mg/kg, iv after 1 hr; type: ADME, organism-based; set-up: dose 2 mg/kg, route intravenous; details: read-out: Drug uptake
[12] = Total plasma concentration in rat at 2 mg/kg, iv after 1 hr; type: ADME, organism-based; set-up: dose 2 mg/kg, route intravenous

Row | Structure (SMILES) | pEC50 [1] | pIC50 [2] | Activity [3] [%] | Activity [4] [%] | pEC50 [8] | further results
1 | O=C1NC(=O)C(c2ccccc2-c2ccc(CCC3N=CC(CC4CCCC4)=N3)cc2)S1 (stereo unspecified) | 5.75 | 6.54 | 94 |  |  | 
2 | CCC(C)(C)Cc1c[nH]c(CCc2ccc(N3CCCC[C@@H]3c3ncn[nH]3)cc2)n1 |  |  | 96 | 117 |  | 
3 | CCC(C)(C)Cc1c[nH]c(CCc2ccc(N3CCCC[C@@H]3C(=O)O)cc2)n1 | 7.62 | 8.28 | 100 | 111 | 7.92 | concentration at 1 h [5]: 210 nM; concentration at 1 h [6]: 10 nM; Kp at 1 h [7]: 0.04
4 | CCC(C)(C)Cc1c[nH]c(CCc2ccc3c(c2)CN(C)C(=O)c2ccccc2-3)n1 |  |  | 96 | 119 |  | 
5 | CCC(C)(C)Cc1c[nH]c(CCc2ccc(N3CCCC[C@@H]3c3nnn[nH]3)cc2)n1 | 7.82 | 8.21 | 100 | 119 | 7.80 | bioavailability [9]: 4.9%
6 | c1ccc(-c2nnn[nH]2)c(-c2ccc(CCc3ncc(CC4CCCC4)[nH]3)cc2)c1 | 7.25 | 7.82 |  |  | 7.80 | 
7 | c1ccc(-c2nnn[nH]2)c(-c2ccc(CCc3nc(CC4CCCC4)c[nH]3)cc2)c1 |  |  | 112 | 85 |  | 
8 | CCC(C)(C)Cc1c[nH]c(CCc2ccc(-c3ccccc3O)cc2)n1 | 6.88 | 7.51 | 97 | 113 | 7.47 | 
9 | CCC(C)(C)Cc1cnc(CCc2ccc(N3CCCC[C@@H]3c3nnc[nH]3)cc2)[nH]1 | 7.38 | 7.59 |  |  | 7.89 | bioavailability [9]: 4.8%
10 | CCC(C)(C)Cc1c[nH]c(CCc2ccc3c(c2)CNC(=O)c2ccccc2-3)n1 |  |  | 98 | 118 |  | 
11 | CCC(C)(C)Cc1c[nH]c(CCc2ccc(N3CCCc4cn[nH]c43)cc2)n1 | 7.38 |  | 101 | 120 | 7.89 | bioavailability [9]: 29%
12 | CCC(C)(C)Cc1cnc(CCc2ccc3c(c2)CN(C)C(=O)c2ccccc2-3)[nH]1 | 7.25 | 7.70 |  |  | 7.57 | 

The next lines start with results.

Row | pEC50 [1] | pIC50 [2] | Activity [3] [%] | Activity [4] [%] | pEC50 [8] | Structure (SMILES) | further results
13 | 6.76 | 7.66 |  |  |  | CCC(C)(C)Cc1c[nH]c(CCc2ccc(-c3ccccc3OCc3nnc[nH]3)cc2)n1 | 
14 | 6.40 | 7.08 |  |  |  | CCC(C)(C)Cc1cnc(CCc2ccc(-c3ccccc3OCc3cnn[nH]3)cc2)[nH]1 | 
15 |  |  | 107 |  |  | CCC(C)(C)Cc1c[nH]c(CCc2ccc(-c3ccccc3OCc3nc(=O)[nH][nH]3)cc2)n1 | 
16 |  |  | 97 |  |  | CCC(C)(C)Cc1c[nH]c(CCc2ccc(-c3ccccc3OCc3cnn[nH]3)cc2)n1 | 
17 | 7.27 | 6.99 |  |  |  | CCC(C)(C)Cc1cnc(CCc2ccc(-c3ccccc3OCC(=O)O)cc2)[nH]1 | 
18 | 6.47 | 7.51 |  |  |  | CCC(C)(C)Cc1cnc(CCc2ccc(-c3ccccc3OCc3n[nH]c(=O)[nH]3)cc2)[nH]1 | 
19 | 7.54 | 8.00 |  |  | 7.96 | CCC(C)(C)Cc1cnc(CCc2ccc3c(c2)CNC(=O)c2ccccc2-3)[nH]1 | concentration at 1 h [5]: 310 nM; concentration at 1 h [6]: 20 nM; Kp at 1 h [7]: 0.068
20 | 6.89 | 6.90 | 89 | 122 | 7.92 | CCC(C)(C)Cc1c[nH]c(CCc2ccc(-c3ccccc3OCc3nc(C(F)(F)F)n[nH]3)cc2)n1 | 
21 | 7.39 | 8.21 | 114 | 120 | 8.24 | CCC(C)(C)Cc1c[nH]c(CCc2ccc(-c3ccccc3OCc3nc(=S)[nH][nH]3)cc2)n1 | concentration at 1 h [5]: 4960 nM; concentration at 1 h [6]: 30 nM; Kp at 1 h [7]: 0.006
22 |  |  | 97 |  |  | CCC(C)(C)Cc1c[nH]c(CCc2ccc(-c3ccccc3OCC(=O)O)cc2)n1 | 
23 | 7.52 |  | 111 | 109 | 8.54 | CCC(C)(C)Cc1c[nH]c(CCc2ccc(-c3ccccc3OCc3nnn[nH]3)cc2)n1 | Kp at 1 h [10]: 0.01; concentration at 1 h [11]: 10 nM; concentration at 1 h [12]: 1250 nM
24 |  |  | 113 |  |  | CCC(C)(C)Cc1c[nH]c(CCc2ccc(-c3ccccc3OCc3ncn[nH]3)cc2)n1 | 
25 | 7.11 | 7.57 | 98 | 115 | 8.34 | CCC(C)(C)Cc1c[nH]c(CCc2ccc(-c3ccccc3OCc3nc(N)n[nH]3)cc2)n1 | concentration at 1 h [5]: 860 nM; concentration at 1 h [6]: 10 nM; Kp at 1 h [7]: 0.016
